According to patent publication US10604514B2, “6-(5-membered heteroaryl)isoquinolin-3-yl carboxamides and preparation and use thereof” (Samumed, LLC, priority 2017, dated 2020):
Like-named read-outs stand apart in the source and are kept apart here.

Legend:
[1] = tested on: SW480 colon carcinoma cells; assay: Cell viability assay (CellTiter-Glo) in SW480 cells; format: cell-based, human; conditions: Homo sapiens; for EC50: 96 h, cell viability, SW480 cells, four days, CellTiter-Glo; for inhibition at 10 µM: SW480, read-out: percent inhibition at 10 μM;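 for all read-outs here: SW480 cells stably carrying an Sp5-luciferase TCF/LEF reporter, luminescent ATP signal as viability measure, DMSO-treated cells as control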
[2] = tested on: LL29 cells (primary human fibroblasts derived from IPF patients), α-smooth muscle actin; assay: Inhibition of fibrotic process: αSMA in TGF-β1-treated primary human fibroblasts from IPF patients (LL29 cells); format: cell-based; conditions: Homo sapiens, Fibroblast; for EC50: 96 h, % αSMA-positive LL29 cells, TGF-β1 20 ng/mL, 4 days; for inhibition at 10 µM: read-out: percent inhibition at 10 μM
Source text: Representative compounds were screened using primary human fibroblasts (derived from IPF patients) treated with TGF-β1 to determine their ability to inhibit the fibrotic process.
Primary human fibroblasts derived from IPF patients (LL29 cells) [^1Xiaoqiu Liu, et. al., “Fibrotic Lung Fibroblasts Show Blunted Inhibition by cAMP Due to Deficient cAMP Response Element-Binding Protein Phosphorylation”, Journal of Pharmacology and Experimental Therapeutics (2005), 315(2), 678-687; ^2Watts, K. L., et. al., “RhoA signaling modulates cyclin D1 expression in human lung fibroblasts; implications for idiopathic pulmonary fibrosis”, Respiratory Research (2006), 7(1), 88] were obtained from American Type Culture Collection (ATCC) and expanded in F12 medium supplemented with 15% Fetal Bovine Serum and 1% Penicillin/Streptomycin.
Each compound was dissolved in DMSO as a 10 mM stock and used to prepare compound source plates. Serial dilution (1:2, 11-point dose-response curves from […] to 0.94 nM) and compound transfer was performed using the ECHO 550 (Labcyte, Sunnyvale, Calif.) into 384-well clear bottom assay plates (Greiner Bio-One) with appropriate DMSO backfill for a final DMSO concentration of 0.1%. LL29 cells were plated at 1,500 cells/well in 70 μL/well F12 medium supplemented with 1% Fetal Bovine Serum. TGF-β1 (Peprotech; 20 ng/mL) was added to the plates to induce fibrosis (ref. 1 and 2 above). Wells treated with TGF-31 and containing DMSO were used as positive control, and cells with only DMSO were negative control. Cells were incubated at 37° C. and 5% CO2 for 4 days. Following incubation for 4 days, SYTOX green nucleic acid stain (Life Technologies [Thermo Fisher Scientific]) was added to the wells at a final concentration of 1 μM and incubated at room temperature for 30 min. Cells were then fixed using 4% formaldehyde (Electron Microscopy Sciences), washed 3 times with PBS followed by blocking and permeabilization using 3% Bovine Serum Albumin (BSA; Sigma) and 0.3% Triton X-100 (Sigma) in PBS. Cells were then stained with antibody specific to α-smooth muscle actin (αSMA; Abcam) (ref. 1 and 2 above) in 3% Bovine Serum Albumin (BSA; Sigma) and 0.3% Triton X-100 (Sigma) in PBS, and incubated overnight at 4° C. Cells were then washed 3 times with PBS, followed by incubation with Alexa Flor-647 conjugated secondary antibody (Life Technologies [Thermo Fisher Scientific]) and DAPI in 3% Bovine Serum Albumin (BSA; Sigma) and 0.3% Triton X-100 (Sigma) in PBS at room temperature for 1 hour. Cells were then washed 3 times with PBS and plates were sealed for imaging. αSMA staining was imaged by excitation at 630 nm and emission at 665 nm and quantified using the Compartmental Analysis program on the CellInsight CX5 (Thermo Scientific). Dead or apoptotic cells were excluded from analysis based on positive SYTOX green staining. % of total cells positive for αSMA were counted in each well and normalized to the average of 11 wells treated with TGF-β1 on the same plate using Dotmatics' Studies Software.

[3] = biological target: GSK3β kinase (Homo sapiens (Human), UniProt P49841); assay: GSK3β kinase assay (Ser/Thr 09 peptide Z-lyte, FRET); format: biochemical; conditions: method text calls the value IC50;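 note: Coumarin/fluorescein emission ratio converted to percent phosphorylation against unphosphorylated (0%) and phosphorylated (100%) controls, 1 h compound incubation at room temperature, 11-point threefold dilutions from 10 µM, run in duplicate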
[4] = biological target: DYRK1A kinase (Homo sapiens (Human), UniProt Q13627); assay: DYRK1A kinase assay (Ser/Thr 18 peptide Z-lyte, FRET)
[5] = tested on: Tau phosphorylation at Ser396 (pSer396), SH-SY5Y cells; assay: Tau phosphorylation at Ser396 (pSer396) in SH-SY5Y cells, ELISA/western blot; format: cell-based, human; conditions: Homo sapiens; SH-SY5Y cells, overnight (16-18 h); read-out: pSer396 Tau EC50;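 note: cell lysates probed for reduced Tau pSer396 via ELISA (colorimetric) or western blot (chemiluminescence), both with one shared pSer396 antibody, EC50 for lowering phosphorylation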
Protocol: Two days before treatment, cells were seeded onto 96 well plates at 5×10^4 cells/well.
Wells were visually checked for cell death or change in morphology and supernatants were tested for cytotoxicity by measurement of lactate dehydrogenase release (LDH, CytoToxOne kit, Promega) if necessary.
Cells were lysed with RIPA buffer complemented with phosphatase and protease inhibitors then lysates were spun down at 12,000 g for 10 min to remove any cellular debris. Lysates are then either directly tested for pSer396 by ELISA (Life Technology, Kit KHB7031) or loaded on NuPage Bis-Tris gels for western blot analysis. Colorimetric detection of ELISA signal is performed by Cytation3 plate reader (Biotek) and the chemiluminescence signal for HRP-linked antibodies used in western blotting is detected using a Carestream Image Station. The same pSer396 antibody is used for detection of pTau in both assays.

[6] = tested on: IL-6; assay: IL-6 inhibition in LPS-stimulated human peripheral blood mononuclear cells (HTRF); format: cell-based; conditions: Homo sapiens, PBMC; for EC50: IL-6, LPS-stimulated huPBMCs, HTRF
Protocol: Fresh Normal PB MNC (Catalog # PB001, AllCells, Alameda, Calif.) were shipped overnight at 4° C. and resuspended in Roswell Park Memorial Institute (RPMI) 1640 Medium, with GlutaMAX Supplement (Catalog #61870127, ThermoFisher Scientific, Waltham, Mass.) supplemented with 1% Penicillin-Streptomycin (Catalog #151401633 ThermoFisher Scientific, Waltham, Mass.) and 1% fetal bovine serum (FBS) (Catalog #16140089, ThermoFisher Scientific, Waltham, Mass.) assay media.
Fresh normal human peripheral blood mononuclear cells (huPBMCs) were resuspended in 1% FBS-RPMI assay media with 1% Penicillin-Streptomycin 1% to a cell concentration of 1×10e6 cells/mL. Each compound was dissolved in DMSO (Catalog # D8418-100 ml, Sigma-Aldrich, St. Louis, Mo.) as a 10 mM stock and used to prepare compound source plates. Serial dilution (1:3, 10-point dose-response curves starting from 10 μM) and compound transfer was performed using the ECHO 550 (Labcyte, Sunnyvale, Calif.) into 384-well white Proxiplate-Plus assay plates (Catalog #6008289, PerkinElmer, Shelton, Conn.) with appropriate DMSO backfill for a final DMSO concentration of 0.25%. huPBMCs were plated at 5000 cells/well in the 384-well Proxiplate-Plus assay plates and incubated at 37° C.-5% CO2 for 2 hours. 50 ng/mL of Lipopolysaccharides from Escherichia coli 0111:B4 (Catalog # L5293-2 ML, Sigma-Aldrich, St. Louis, Mo.) was added after 2 hours and cells were incubated for another 22 hours at 37° C.-5% CO2. After 22 hour incubation, a mixture of anti-IL6 XL665 and anti-IL-6 Cryptate diluted in reconstitution buffer (Catalog #62IL6PEC, Cisbio Inc., Bedford, Mass.) was added to each well. Following incubation for 3 hours at room temperature, Homogeneous Time-Resolved Fluorescence (HTRF) was measured using the Envision (Perkin Elmer, Shelton, Conn.) at 665 nm and […]. The ratio of fluorescence at 665 nm to 620 nm was used as a readout for IL-6 quantification. All samples were processed in duplicate. Readings were normalized to DMSO treated cells and normalized activities were utilized for EC50 calculations. EC50 was determined using software generated by Dotmatics Limited (Windhill Bishops Stortford Herts, UK) using the Levenberg-Marquardt 4 parameter fitting procedure with finite different gradients.

[7] = tested on: Wnt activity (Sp5-Luc reporter in SW480 colon carcinoma cells); assay: Wnt activity screening assay (Sp5-Luc reporter gene assay); format: cell-based, human; conditions: Homo sapiens; for EC50: Sp5-Luc reporter, SW480 cells, 36 to 48 hours; for inhibition at 10 µM: SW480, read-out: percent inhibition at 10 μM
Source text: The screening assay for Wnt activity is described as follows. Reporter cell lines can be generated by stably transducing cancer cell lines (e.g., colon cancer) or primary cells (e.g., IEC-6 intestinal cells) with a lentiviral construct that includes a Wnt-responsive promoter driving expression of the firefly luciferase gene.
SW480 colon carcinoma cells were transduced with a lentiviral vector expressing luciferase with a human Sp5 promoter consisting of a sequence of eight TCF/LEF binding sites. SW480 cells stably expressing the Sp5-Luc reporter gene and a hygromycin resistance gene were selected by treatment with 150 μg/mL of hygromycin for 7 days. These stably transduced SW480 cells were expanded in cell culture and used for all further screening activities. Each compound was dissolved in DMSO as a 10 mM stock and used to prepare compound source plates. Serial dilution (1:3, 10-point dose-response curves starting from 10 μM) and compound transfer was performed using the ECHO 550 (Labcyte, Sunnyvale, Calif.) into 384-well white solid bottom assay plates (Greiner Bio-One) with appropriate DMSO backfill for a final DMSO concentration of 0.1%. For Sp5-Luc reporter gene assays, the cells were plated at 4,000 cells/well in 384-well plates with a DMEM medium containing 1% fetal bovine serum, and 1% Penicillin-Streptomycin and incubated for 36 to 48 hours at 37° C. and 5% CO2. Following incubation, 15 μl of BriteLite Plus luminescence reagent (Perkin Elmer) was added to each well of the 384-well assay plates. The plates were placed on an orbital shaker for 2 min and then luminescence was quantified using the Envision (Perkin Elmer) plate reader. Readings were normalized to DMSO only treated cells, and normalized activities were utilized for EC50 calculations using the dose-response log (inhibitor) vs. response -variable slope (four parameters) nonlinear regression feature available in GraphPad Prism 5.0 (or Dotmatics).

[8] = DYRK1A kinase, method text calls the value IC50

Sequence of GSK3β kinase (P49841 whole entry): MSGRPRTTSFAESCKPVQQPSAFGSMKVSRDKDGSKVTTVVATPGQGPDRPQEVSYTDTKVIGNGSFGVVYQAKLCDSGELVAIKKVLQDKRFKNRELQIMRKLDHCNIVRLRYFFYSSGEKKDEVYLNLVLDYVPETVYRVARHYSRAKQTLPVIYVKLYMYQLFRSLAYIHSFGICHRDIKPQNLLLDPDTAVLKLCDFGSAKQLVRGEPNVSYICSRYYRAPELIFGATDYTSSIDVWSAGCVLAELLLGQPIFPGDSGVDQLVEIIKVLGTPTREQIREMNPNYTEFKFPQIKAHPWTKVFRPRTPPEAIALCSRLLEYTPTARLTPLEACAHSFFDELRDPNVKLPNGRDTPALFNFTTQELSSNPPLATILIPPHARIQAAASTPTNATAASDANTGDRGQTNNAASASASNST

Row | EC50 [1] [nM] | EC50 [3] [nM] | EC50 [4, 8] [nM] | EC50 [5] [nM] | EC50 [6] [nM] | EC50 [7] [nM] | EC50 [4] [nM] | Compound | EC50 [2] [nM] | inhibition at 10 µM [1] [%] | inhibition at 10 µM [7] [%] | inhibition at 10 µM [2] [%] | inhibition at 10 µM ([6]; read-out: percent value in parentheses below EC50 >10) [%]
1 | 839 | 107 | 4 | 368 | 3040 | 239 |  | Cn1cc(-c2cc(F)c3cnc(NC(=O)[C@H]4CC[C@H](N(C)C)CC4)cc3c2)cn1 [Compound 1, trans-4-(Dimethylamino)-N-(8-fluoro-6-(1-methyl-1H-pyrazol-4-yl)isoquinolin-3-yl)cyclohexane-1-carboxamide] | 445 |  |  |  | 
2 | 4450 | 246 | 4 | 559 | 1280 | 799 |  | Cn1cc(-c2cc3cc(NC(=O)[C@H]4CC[C@H](N(C)C)CC4)ncc3cc2F)cn1 [Compound 2, trans-4-(Dimethylamino)-N-(7-fluoro-6-(1-methyl-1H-pyrazol-4-yl)isoquinolin-3-yl)cyclohexane-1-carboxamide] | 150 |  |  |  | 
3 | > 10000 | 1900 | 376 |  | 9420 | > 10000 |  | CC(C)CN1CCC(C(=O)Nc2cc3cc(-c4ccn(C)n4)ccc3cn2)CC1 [Compound 7, 1-Isobutyl-N-(6-(1-methyl-1H-pyrazol-3-yl)isoquinolin-3-yl)piperidine-4-carboxamide] | 2660 | 42.5 | 32.9 |  | 
4 | > 10000 | 1160 | 110 |  | 3220 | > 10000 |  | Cc1ncc(-c2cc(F)c3cnc(NC(=O)[C@H]4CC[C@H](N5CCOCC5)CC4)cc3c2)o1 [Compound 19, trans-N-(8-Fluoro-6-(2-methyloxazol-5-yl)isoquinolin-3-yl)-4-morpholinocyclohexane-1-carboxamide] | > 10000 | 44.8 | 22.4 | 20.6 | 
5 |  |  | 3 | 320 |  | 1860 |  | Cc1ncc(-c2ccc3cnc(NC(=O)[C@H]4CC[C@H](N(C)C)CC4)cc3c2)o1 [Compound 45, trans-4-(Dimethylamino)-N-(6-(2-methyloxazol-5-yl)isoquinolin-3-yl) cyclohexane-1-carboxamide] | 95 |  |  |  | 
6 | > 10000 | 6710 | 1000 |  | 8960 | > 10000 |  | Cc1ncc(-c2cc(F)c3cnc(NC(=O)N(C)C4CCN(C)CC4)cc3c2)o1 [Compound 229, 3-(8-Fluoro-6-(2-methyloxazol-5-yl)isoquinolin-3-yl)-1-methyl-1-(1-methylpiperidin-4-yl)urea] | 9980 | 49.5 | 0 |  | 

The remaining lines, values behind:

Row | Compound | EC50 [1] [nM] | EC50 [3] [nM] | EC50 [4, 8] [nM] | EC50 [5] [nM] | EC50 [6] [nM] | EC50 [7] [nM] | EC50 [4] [nM] | EC50 [2] [nM] | inhibition at 10 µM [1] [%] | inhibition at 10 µM [7] [%] | inhibition at 10 µM [2] [%] | inhibition at 10 µM ([6]; read-out: percent value in parentheses below EC50 >10) [%]
7 | Cn1cc(-c2cc(F)c3cnc(NC(=O)[C@H]4CC[C@H](N5CCOCC5)CC4)cc3c2)cn1 [Compound 3, trans-N-(8-Fluoro-6-(1-methyl-1H-pyrazol-4-yl)isoquinolin-3-yl)-4-morpholinocyclohexane-1-carboxamide] | 6670 | 131 | 4 | 458 | 1120 | 1860 |  | 153 |  |  |  | 
8 | CC(C)CN1CCC(CC(=O)Nc2cc3cc(-c4cnn(C)c4)ccc3cn2)C1 (stereo not shown) [Compound 4, 2-(1-Isobutylpyrrolidin-3-yl)-N-(6-(1-methyl-1H-pyrazol-4-yl)isoquinolin-3-yl)acetamide] | 907 | 22 | 4 | 69 | 489 | 730 |  | 229 |  |  |  | 
9 | [2H]c1c([2H])c(C(=O)Nc2cc3cc(-c4cncn4C)ccc3cn2)c([2H])c([2H])c1F [Compound 81, 4-Fluoro-N-(6-(1-methyl-1H-imidazol-5-yl)isoquinolin-3-yl)benzamide-2,3,5,6-d4] | 486 |  |  | 2830 | 1120 | > 10000 |  | 309 |  | 36.3 |  | 
10 | Cn1cc(-c2ccc3cnc(NC(=O)c4ccnc(N5CC[N+](C)([O-])CC5)c4)cc3c2)nn1 [Compound 224, 1-methyl-4-(4-((6-(1-methyl-1H-1,2,3-triazol-4-yl)isoquinolin-3-yl)carbamoyl)pyridin-2-yl)piperazine 1-oxide] | > 10000 | 703 |  |  | > 10000 | > 10000 | 1 | > 10000 | 24.6 | 43.8 | 13.1 | 13.7
